Data on 32 compounds can be found in US20250381110A1, “SKIN CARE COMPOSITION AND METHOD OF USING THE SAME” (THE PROCTER & GAMBLE COMPANY, priority 2024, published 2025).

Like-named read-outs stand apart in the source and are kept apart here.

This assay relates to p62-dependent mitophagy. Description: Luciferase-p62 assay (Fluc-p62 clearance) in mouse embryonic fibroblasts. The assay is classed as cell-based. As for the experimental part:
To identify p62-dependent materials which increase mitophagy, a Luciferase-p62 Assay was established. This method provides an approach to measure the ability of a material to modulate p62-dependent mitophagy by using an inducible firefly luciferase-p62 (Fluc-p62) reporter cell system. In this assay, p62 levels are driven by doxycycline treatment. After levels increased, expression of Fluc-p62 is turned off by removal of doxycycline, materials are then added and assessed for how they affect clearance of Fluc-p62 protein, which is proportionate to cellular mitophagy rates (Kelly et al.). The negative control is doxycycline induced Luc-p62 in the absence of compound or bioactive material treatment and in the presence of vehicle (DMSO).
Test materials including bioactive materials were screened in mouse embryonic fibroblasts (MEFs, Harada et al.) expressing the TET-inducible p62-fluc construct as previously described (Brown et al.). […] Gibson assembly was used to insert firefly luciferase (Fluc) and p62 into the pCW57.1 backbone. Fluc, p62, and pCW57.1 were polymerase chain reaction (PCR) amplified using pfu polymerase (Life technologies) and Gibson assembly primers with 20 base pair (bp) overhangs. PCR products were separated by agarose gel electrophoreses, and fragments excised and purified before use in DNA assembly reaction with NEBuilder HiFi DNA Assembly kit (New England Biolabs). After the assembly, the reaction mix was transformed into NEB3040 Stable Competent Escherichia coli (New England Biolabs). After 24 hours growth at 31 degrees Celsius the plasmid was extracted using QIAprep Spin Miniprep kit (Qiagen). The plasmid was sequenced to confirm correct insertion of Fluc-p62. To generate MEFs stably expressing doxycycline inducible Fluc-p62, HEK293FT cells were transfected with Fluc-p62-pCW57.1 and the ViraPower Packaging Mix (Invitrogen) to produce lentivirus. MEFs were transduced with the obtained lentiviral stock following followed by selection with 1 microgram per milliliter puromycin.Fluc-p62expressing MEFs were maintained in DMEM supplemented with 10 percent fetal bovine serum (FBS), 100 units per milliliter penicillin/streptomycin, and 2 millimolar L-glutamine in a humidified atmosphere containing 5 percent carbon dioxide at 37 degrees Celsius. Cells were plated into white 96 well plates (2,000 cells per well with 100 microliters media) and allowed to settle for 24 hours. […] Subsequently, cells were treated with test materials for 48 hours in normal growth medium and analysed using ONE-Glo™+Tox Luciferase Reporter and Cell Viability Assay (Promega) by following the manufacturer's protocol.
Test compositions and control compositions were prepared as described above in the Luciferase-p62 assay (Method 3) and tested accordingly. The compounds used in this example, as examples of bioactive materials, were from the APExBIO DiscoveryProbe™ Natural Product Library Plus (Houston, TX) and evaluated at equivalent concentrations (10 μM).
Data are additionally calculated as percentage of activity relative to rapamycin, a benchmark control compound tested in the same experiment.

Where [1] appears, read: Luciferase-p62 assay, mouse embryonic fibroblasts (MEFs), compounds at 10 μM.
Where [2] appears, read: percentage of Luciferase-p62 clearance relative to baseline (mean luminescence in the absence of doxycycline induction), MEFs, 10 μM.
Where [3] appears, read: percentage of activity relative to rapamycin tested in the same experiment at the same concentration, MEFs, 10 μM.

On to `C[C@]12CCC(=O)C=C1CC[C@@H]1[C@@H]2[C@@H](O)C[C@@]2(C)[C@H]1CC[C@]2(O)C(=O)COC(=O)CCC(=O)[O-].[Na+]`, for which the “Mean Luminescence” value under setting [1] is on record as 927.92. The “% Activity over baseline” value under setting [2] is given as 42.65%. In addition, the “% Activity relative to Rapamycin” value under setting [3] came out at 76.85%.

Consider `Nc1nc(=O)c2c([nH]1)NCC(CNc1ccc(C(=O)N[C@@H](CCC(=O)O)C(=O)O)cc1)N2C=O` (mixture of isomers) [Folinic acid], for which the “Mean Luminescence” value under setting [1] is reported as 762.92. Also, the “% Activity over baseline” value under setting [2] is on record as 52.85%. Besides, under setting [3], the “% Activity relative to Rapamycin” value is on record as 95.22%.

`O=C1O[C@H]2[C@@H]3OC(=O)c4cc(O)c(O)c(O)c4-c4c(O)c(O)c5oc(=O)c6c(c(O)c(O)c7oc(=O)c4c5c76)-c4c(cc(O)c(O)c4O)C(=O)OC[C@H]3OC(O)[C@@H]2OC(=O)c2cc(O)c(O)c(O)c2-c2c1cc(O)c(O)c2O` (mixture of isomers) [Punicalagin]: the “Mean Luminescence” value under setting [1] is on record as 782.52. The “% Activity over baseline” value under setting [2] worked out at 51.64%. The “% Activity relative to Rapamycin” value under setting [3] came out at 93.04%.

With `C[N+](C)(C)CC(O)CC(=O)O.[Cl-]` (racemic) [DL-Carnitine HCl], the “Mean Luminescence” value under setting [1] was 902.01. Besides, the “% Activity over baseline” value under setting [2] is given as 44.26%. In addition, under setting [3], the “% Activity relative to Rapamycin” value is 79.74%.

In the case of `CC(C)(CO)C(O)C(=O)NCCCO` (racemic) [DL-Panthenol], under setting [1], the “Mean Luminescence” value amounted to 991.50. For the same compound, under setting [2], the “% Activity over baseline” value turned out to be 38.72%. Also, the “% Activity relative to Rapamycin” value under setting [3] is given as 69.77%.

On to `CSCCC(NC(C)=O)C(=O)O` (racemic) [N-Acetyl-DL-methionine], for which the “Mean Luminescence” value under setting [1] stood at 973.29. For the same compound, the “% Activity over baseline” value under setting [2] amounted to 39.85%. The “% Activity relative to Rapamycin” value under setting [3] is 71.80%.

For `O=C1C=CC(=O)C=C1` [1,4-Benzoquinone], the “Mean Luminescence” value under setting [1] stood at 422.02. Moreover, the “% Activity over baseline” value under setting [2] is 73.92%. For the same compound, the “% Activity relative to Rapamycin” value under setting [3] was determined as 133.18%.

As to `Cl.Cl.NCCCCN` [1,4-Diaminobutane dihydrochloride], the “Mean Luminescence” value was 902.42. Also, where the note is “10 µM”, the “% Activity over baseline” value is 44.23% and the “% Activity relative to Rapamycin” value came to 79.69%.

For the compound `O=c1ccn2c(n1)O[C@H]1[C@H](O)[C@@H](CO)O[C@H]12` [2,2′-Cyclouridine], the “Mean Luminescence” value under setting [1] is given as 935.30. Further, under setting [2], the “% Activity over baseline” value is listed as 42.20%. Also, under setting [3], the “% Activity relative to Rapamycin” value is listed as 76.03%.

`CC(=O)C(C)=NO` [2,3-Butanedione-2-monoxime]: under setting [1], the “Mean Luminescence” value came to 762.32. The “% Activity over baseline” value under setting [2] worked out at 52.89%. Also, under setting [3], the “% Activity relative to Rapamycin” value worked out at 95.29%.

On to `Cc1cnc(C)cn1` [2,5-Dimethyl pyrazine], for which the “Mean Luminescence” value under setting [1] stood at 842.32. The “% Activity over baseline” value under setting [2] is 47.94%. Moreover, the “% Activity relative to Rapamycin” value under setting [3] was determined as 86.38%.

`CC(=O)c1cc(O)ccc1O` [2′,5′-Dihydroxyacetophenone]: the “Mean Luminescence” value under setting [1] is 709.63. In addition, the “% Activity over baseline” value under setting [2] was 56.14%. Also, the “% Activity relative to Rapamycin” value under setting [3] came out at 101.16%.

With `O=C(O)Cc1cccc(O)c1` [3-Hydroxyphenylacetic acid], the “Mean Luminescence” value under setting [1] is given as 888.33. Further, the “% Activity over baseline” value under setting [2] is 45.10%. For the same compound, the “% Activity relative to Rapamycin” value under setting [3] came out at 81.26%.

Consider `CC(CC(=O)O)CC(=O)O` [3-Methylglutaric acid], for which the “Mean Luminescence” value under setting [1] is given as 818.33. For the same compound, under setting [2], the “% Activity over baseline” value came out at 49.43%. Also, the “% Activity relative to Rapamycin” value under setting [3] is 89.05%.

In the case of `COc1ccc(CC(=O)O)cc1` [4-Methoxyphenylacetic acid], the “Mean Luminescence” value under setting [1] is on record as 929.33. The “% Activity over baseline” value under setting [2] amounted to 42.57%. Under setting [3], the “% Activity relative to Rapamycin” value turned out to be 76.69%.

As to `C=CCCC(=O)O` [4-Pentenoic acid], the “Mean Luminescence” value under setting [1] was 936.28. Also, under setting [2], the “% Activity over baseline” value stood at 42.14%. Also, the “% Activity relative to Rapamycin” value under setting [3] is on record as 75.92%.

Take `C=C1CCC2C(C=C(C)C(=O)C3(OC(C)=O)CC(C)C(OC(=O)c4ccccc4)C3C1OC(C)=O)C2(C)C` (stereo not shown) [5,15-Diacetyl-3-benzoyllathyrol]: the “Mean Luminescence” value under setting [1] is reported as 927.14. Under setting [2], the “% Activity over baseline” value was 42.70%. For the same compound, the “% Activity relative to Rapamycin” value under setting [3] was 76.94%.

For `C=CCNC1=C2C[C@@H](C)C[C@H](OC)[C@H](O)[C@@H](C)/C=C(\C)[C@H](OC(N)=O)[C@@H](OC)/C=C\C=C(/C)C(=O)NC(=CC1=O)C2=O` [17-AAG (KOS953)], under setting [1], the “Mean Luminescence” value was 299.07. The “% Activity over baseline” value under setting [2] is given as 81.52%. Also, the “% Activity relative to Rapamycin” value under setting [3] is reported as 146.87%.

On to `C=C(C)[C@H]1CC=C(C)C(=O)C1` [(S)-(+)-Carvone], for which the “Mean Luminescence” value under setting [1] amounted to 802.50. For the same compound, the “% Activity over baseline” value under setting [2] is reported as 50.40%. Besides, under setting [3], the “% Activity relative to Rapamycin” value was determined as 90.82%.

On to `CC1(C)C2CCC1(C)C(O)C2` (stereo not shown) [(—)-Borneol], for which the “Mean Luminescence” value under setting [1] is reported as 967.20. Further, the “% Activity over baseline” value under setting [2] is listed as 40.23%. Also, the “% Activity relative to Rapamycin” value under setting [3] was found to be 72.48%.

Turning to `COc1ccc(/C=C/C(=O)/C=C(O)/C=C/c2ccc(OC)c(OC)c2)cc1OC` [ASC-J9], the “Mean Luminescence” value under setting [1] was determined as 664.12. Moreover, under setting [2], the “% Activity over baseline” value was 58.96%. Moreover, the “% Activity relative to Rapamycin” value under setting [3] turned out to be 106.23%.

Regarding `Nc1ncnc2c1ncn2[C@@H]1O[C@H](COP(=O)(O)OP(=O)(O)OP(=O)(O)O)[C@@H](O)[C@H]1O` [ATP], the “Mean Luminescence” value under setting [1] amounted to 875.39. Further, the “% Activity over baseline” value under setting [2] turned out to be 45.90%. Besides, the “% Activity relative to Rapamycin” value under setting [3] is recorded as 82.70%.

For the compound `COc1cc(C=O)ccc1OC(C)=O` [Acetylvanillin], the “Mean Luminescence” value under setting [1] was 979.34. In addition, the “% Activity over baseline” value under setting [2] was 39.48%. The “% Activity relative to Rapamycin” value under setting [3] was found to be 71.13%.

For the compound `Cc1cnc(C(=O)O)c[n+]1[O-]` [Acipimox], the “Mean Luminescence” value under setting [1] is 922.85. Also, the “% Activity over baseline” value under setting [2] stood at 42.97%. Also, the “% Activity relative to Rapamycin” value under setting [3] amounted to 77.42%.

Take `COc1cc(C)c(/C=C/C(C)=C/C=C/C(C)=C/C(=O)O)c(C)c1C` [Acitretin]: the “Mean Luminescence” value under setting [1] amounted to 883.02. Further, under setting [2], the “% Activity over baseline” value was 45.43%. The “% Activity relative to Rapamycin” value under setting [3] came to 81.85%.

For `Nc1ncnc2c1ncn2[C@@H]1O[C@H](COP(=O)(O)O)[C@@H](O)[C@H]1O` [Adenosine 5-monophosphate], the “Mean Luminescence” value under setting [1] stood at 890.00. For the same compound, the “% Activity over baseline” value under setting [2] stood at 45.00%. Also, the “% Activity relative to Rapamycin” value under setting [3] was 81.07%.

For `C=C1CC[C@@H]2[C@](C)(CO)[C@H](O)CC[C@@]2(C)[C@@H]1C/C=C1/C(=O)OC[C@H]1O` [Andrographolide], the “Mean Luminescence” value under setting [1] is reported as 818.97. Under setting [2], the “% Activity over baseline” value was determined as 49.39%. Under setting [3], the “% Activity relative to Rapamycin” value was determined as 88.98%.

As for `O=c1ccc2ccc3occc3c2o1` [Angelicin], the “Mean Luminescence” value under setting [1] amounted to 910.28. Under setting [2], the “% Activity over baseline” value is reported as 43.74%. Moreover, the “% Activity relative to Rapamycin” value under setting [3] was 78.82%.

Regarding `COc1cc(C(C)=O)ccc1O` [Apocynin], the “Mean Luminescence” value under setting [1] was found to be 973.30. In addition, the “% Activity over baseline” value under setting [2] is recorded as 39.85%. In addition, the “% Activity relative to Rapamycin” value under setting [3] was 71.80%.

As to `CO[C@H]1O[C@@H]2O[C@@]3(C)CC[C@H]4[C@H](C)CC[C@@H]([C@H]1C)[C@@]24OO3` [Artemether (SM-224)], the “Mean Luminescence” value under setting [1] was found to be 596.56. Under setting [2], the “% Activity over baseline” value is on record as 63.13%. The “% Activity relative to Rapamycin” value under setting [3] is 113.75%.

As for `C[C@@H]1CC[C@H]2[C@@H](C)C(=O)O[C@@H]3O[C@@]4(C)CC[C@@H]1[C@]32OO4` [Artemisinine], the “% Activity over baseline” value under setting [2] is 39.29%.

Turning to `CC[C@@H]1/C=C(\C)C[C@H](C)C[C@H](OC)[C@H]2O[C@@](O)(C(=O)C(=O)N3CCCC[C@H]3C(=O)O[C@H](/C(C)=C/[C@@H]3CC[C@@H](O)[C@H](OC)C3)[C@H](C)[C@@H](O)CC1=O)[C@H](C)C[C@@H]2OC` [Ascomycin(FK 520)], the “Mean Luminescence” value under setting [1] was 640.39. Further, the “% Activity over baseline” value under setting [2] was 60.42%. The “% Activity relative to Rapamycin” value under setting [3] amounted to 108.87%.
